Here are results for twelve molecules from patent US10196403B2, “Compounds and compositions and uses thereof” (Sunovion Pharmaceuticals Inc., priority 2016, dated 2019).

In the test the test system is mice. The test is described as follows: Neuropharmacological Assay (SmartCube). It counts as in vivo. The following applies: for AD: ADHD (SmartCube probability) / AG: analgesic (SmartCube probability) / AX: anxiolytic (SmartCube probability) / CE: cognitive enhancer (SmartCube probability) / DP: anti-depressant (SmartCube probability) / MS: mood stabilizer (SmartCube probability) / PS: anti-psychotic (SmartCube probability) / SD: sedative hypnotic (SmartCube probability) / UN: uncharacterized CNS activity (SmartCube probability): mice, i.p. 15 min before test, most efficacious dose(s) of 3 doses; for minimal effective dose: Mus musculus, read-out: POTENCY (minimal effective dose, MED). The method in brief:
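Behavior of treated mice captured by digital video and matched algorithmically against reference drug classes, yielding a class probability at the most efficacious of 3 i.p. doses (15 min pretreatment, NMP/PEG/propylene glycol vehicle). Potency given as MED, the mpk dose reaching ≥50% total activity across usually 0.3–30 mpk.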

Where [1] appears, read: MED = dose having 50% or more total activity in SmartCube.

Read-outs that look alike come from different tables or passages of the source.

Consider `CNC[C@@H]1OCCc2ccc3c(c21)COC3` [Example 109], for which the “AD: ADHD (SmartCube probability)” value is “+ (LOQ≤ + <5%)”, the “AG: analgesic (SmartCube probability)” value was “+ (LOQ≤ + <5%)”, the “AX: anxiolytic (SmartCube probability)” value is “++ (5%≤ ++ <25%)” and the “CE: cognitive enhancer (SmartCube probability)” value (from here on “CE: cognitive enhancer”) is given as “+ (LOQ≤ + <5%)”. Further, the “DP: anti-depressant (SmartCube probability)” value (from here on “DP: anti-depressant”) is “++ (5%≤ ++ <25%)”, the “MS: mood stabilizer (SmartCube probability)” value (shortened to “MS: mood stabilizer”) is “+ (LOQ≤ + <5%)”, the “PS: anti-psychotic (SmartCube probability)” value (“PS: anti-psychotic” below) is on record as “++++ (50%≤ ++++)” and the “SD: sedative hypnotic (SmartCube probability)” value (“SD: sedative hypnotic” for short) was “++ (5%≤ ++ <25%)”. Besides, the “UN: uncharacterized CNS activity (SmartCube probability)” value (“UN: uncharacterized CNS activity” for short) is given as “++ (5%≤ ++ <25%)”. In addition, under setting [1], the “POTENCY (minimal effective dose, MED)” value is reported as “B (>3 to 10 mpk)”.

The term minimal effective dose denotes the lowest level tested that produced the effect sought. For the molecule `CNC[C@H]1OCCc2ccc3c(c21)OCO3` [Example 1, (S)-1-(6,9-dihydro-7H-[1,3]dioxolo[4,5-h]isochromen-9-yl)-N-methylmethanamine], the minimal effective dose is under 3 mg/kg, the “AD: ADHD (SmartCube probability)” value is reported as “+ (LOQ≤ + <5%)”, the “AG: analgesic (SmartCube probability)” value is “+ (LOQ≤ + <5%)” and the “AX: anxiolytic (SmartCube probability)” value is reported as “++ (5%≤ ++ <25%)”. For the same molecule, the “CE: cognitive enhancer” value is “+ (LOQ≤ + <5%)”, the “DP: anti-depressant” value was “++++ (50%≤ ++++)”, the “MS: mood stabilizer” value is given as “+ (LOQ≤ + <5%)” and the “PS: anti-psychotic” value is listed as “++ (5%≤ ++ <25%)”. For the same molecule, the “SD: sedative hypnotic” value is “++ (5%≤ ++ <25%)” and the “UN: uncharacterized CNS activity” value is “+ (LOQ≤ + <5%)”.

Take `CNC[C@H]1OCc2c(Cl)cccc21` [Example 92, (S)-1-(4-chloro-1,3-dihydroisobenzofuran-1-yl)-N-methylmethanamine]: the “AD: ADHD (SmartCube probability)” value is recorded as “+ (LOQ≤ + <5%)”, the “AG: analgesic (SmartCube probability)” value was “++ (5%≤ ++ <25%)”, the “AX: anxiolytic (SmartCube probability)” value is on record as “++ (5%≤ ++ <25%)” and the “CE: cognitive enhancer” value was “++ (5%≤ ++ <25%)”. For the same molecule, the “DP: anti-depressant” value is “++ (5%≤ ++ <25%)”, the “MS: mood stabilizer” value was “+ (LOQ≤ + <5%)”, the “PS: anti-psychotic” value is reported as “+ (LOQ≤ + <5%)” and the “SD: sedative hypnotic” value is “++ (5%≤ ++ <25%)”. For the same molecule, the “UN: uncharacterized CNS activity” value is “+++ (25%≤ +++ <50%)”. Besides, the minimal effective dose under setting [1] lay in the range of 10 to 30 mg/kg.

Turning to `Cc1cccc2c1CCO[C@@H]2CN` [Example 72, (S)-(5-methylisochroman-1-yl)methanamine], the “AD: ADHD (SmartCube probability)” value is reported as “+ (LOQ≤ + <5%)”, the “AG: analgesic (SmartCube probability)” value is on record as “+ (LOQ≤ + <5%)”, the “AX: anxiolytic (SmartCube probability)” value is given as “++ (5%≤ ++ <25%)” and the “CE: cognitive enhancer” value is on record as “+ (LOQ≤ + <5%)”. Also, the “DP: anti-depressant” value is “++ (5%≤ ++ <25%)”, the “MS: mood stabilizer” value is “+ (LOQ≤ + <5%)”, the “PS: anti-psychotic” value was “+ (LOQ≤ + <5%)” and the “SD: sedative hypnotic” value was “+ (LOQ≤ + <5%)”. The “UN: uncharacterized CNS activity” value is given as “+++ (25%≤ +++ <50%)”. In addition, under setting [1], the minimal effective dose is 3 to 10 mg/kg.

Turning to `CNC[C@@H]1OC[C@@H](C)c2ccccc21` [Example 20, N-methyl-1-((1R,4S)-4-methylisochroman-1-yl)methanamine], the “AD: ADHD (SmartCube probability)” value was “+ (LOQ≤ + <5%)”, the “AG: analgesic (SmartCube probability)” value is listed as “+ (LOQ≤ + <5%)”, the “AX: anxiolytic (SmartCube probability)” value is on record as “++ (5%≤ ++ <25%)” and the “CE: cognitive enhancer” value is “++ (5%≤ ++ <25%)”. In addition, the “DP: anti-depressant” value was “++ (5%≤ ++ <25%)”, the “MS: mood stabilizer” value is listed as “+ (LOQ≤ + <5%)”, the “PS: anti-psychotic” value is listed as “++++ (50%≤ ++++)” and the “SD: sedative hypnotic” value was “++ (5%≤ ++ <25%)”. Also, the “UN: uncharacterized CNS activity” value is “++++ (50%≤ ++++)”. For the same molecule, under setting [1], the minimal effective dose is under 3 mg/kg.

On to `CNC[C@H]1OCCc2c(C#N)cccc21` [Example 46, (S)-1-((methylamino)methyl)isochromane-5-carbonitrile], for which the “AD: ADHD (SmartCube probability)” value is “+ (LOQ≤ + <5%)”, the “AG: analgesic (SmartCube probability)” value is “+ (LOQ≤ + <5%)”, the “AX: anxiolytic (SmartCube probability)” value is “++ (5%≤ ++ <25%)” and the “CE: cognitive enhancer” value is given as “++ (5%≤ ++ <25%)”. The “DP: anti-depressant” value is reported as “++ (5%≤ ++ <25%)”, the “MS: mood stabilizer” value is listed as “+ (LOQ≤ + <5%)”, the “PS: anti-psychotic” value was “++ (5%≤ ++ <25%)” and the “SD: sedative hypnotic” value was “++ (5%≤ ++ <25%)”. Further, the “UN: uncharacterized CNS activity” value is on record as “+++ (25%≤ +++ <50%)”. In addition, under setting [1], the minimal effective dose lay within 3 to 10 mg/kg.

For `CNC[C@H]1OCCc2cccc(F)c21` [Example 25, (S)-1-(8-fluoroisochroman-1-yl)-N-methylmethanamine], the “AD: ADHD (SmartCube probability)” value is on record as “+ (LOQ≤ + <5%)”, the “AG: analgesic (SmartCube probability)” value was “++ (5%≤ ++ <25%)”, the “AX: anxiolytic (SmartCube probability)” value is “+ (LOQ≤ + <5%)” and the “CE: cognitive enhancer” value was “++ (5%≤ ++ <25%)”. Also, the “DP: anti-depressant” value is given as “+++ (25%≤ +++ <50%)”, the “MS: mood stabilizer” value was “+ (LOQ≤ + <5%)”, the “PS: anti-psychotic” value is “++ (5%≤ ++ <25%)” and the “SD: sedative hypnotic” value is “++ (5%≤ ++ <25%)”. Besides, the “UN: uncharacterized CNS activity” value is “+ (LOQ≤ + <5%)”. Under setting [1], the minimal effective dose is 3 to 10 mg/kg.

As for `CNC[C@@H]1OC[C@H](O)c2cccc(F)c21` [Example 99, (1R,4R)-8-fluoro-1-((methylamino)methyl)isochroman-4-ol], the “AD: ADHD (SmartCube probability)” value is “+ (LOQ≤ + <5%)”, the “AG: analgesic (SmartCube probability)” value is reported as “+ (LOQ≤ + <5%)”, the “AX: anxiolytic (SmartCube probability)” value is reported as “++ (5%≤ ++ <25%)” and the “CE: cognitive enhancer” value is on record as “+ (LOQ≤ + <5%)”. The “DP: anti-depressant” value is listed as “+ (LOQ≤ + <5%)”, the “MS: mood stabilizer” value was “+ (LOQ≤ + <5%)”, the “PS: anti-psychotic” value is “++ (5%≤ ++ <25%)” and the “SD: sedative hypnotic” value was “++ (5%≤ ++ <25%)”. Besides, the “UN: uncharacterized CNS activity” value was “+++ (25%≤ +++ <50%)”. In addition, under setting [1], the minimal effective dose fell in the range of 10 to 30 mg/kg.

As to `CNC[C@H]1OCCc2c(OC)cccc21` [Example 62, (S)-1-(5-methoxyisochroman-1-yl)-N-methylmethanamine], the “AD: ADHD (SmartCube probability)” value was “+ (LOQ≤ + <5%)”, the “AG: analgesic (SmartCube probability)” value was “++ (5%≤ ++ <25%)”, the “AX: anxiolytic (SmartCube probability)” value was “++++ (50%≤ ++++)” and the “CE: cognitive enhancer” value is reported as “+ (LOQ≤ + <5%)”. The “DP: anti-depressant” value was “+ (LOQ≤ + <5%)”, the “MS: mood stabilizer” value was “+ (LOQ≤ + <5%)”, the “PS: anti-psychotic” value is listed as “+ (LOQ≤ + <5%)” and the “SD: sedative hypnotic” value was “+ (LOQ≤ + <5%)”. Also, the “UN: uncharacterized CNS activity” value is “++ (5%≤ ++ <25%)”. Besides, the minimal effective dose under setting [1] lay within 10 to 30 mg/kg.

As for `Fc1cccc2c1[C@@H](CNC1CCC1)OCC2` [Example 96, (S)-N-((8-fluoroisochroman-1-yl)methyl)cyclobutanamine], the minimal effective dose was 10 to 30 mg/kg, the “AD: ADHD (SmartCube probability)” value is listed as “+ (LOQ≤ + <5%)”, the “AG: analgesic (SmartCube probability)” value is reported as “+ (LOQ≤ + <5%)” and the “AX: anxiolytic (SmartCube probability)” value was “+ (LOQ≤ + <5%)”. The “CE: cognitive enhancer” value is on record as “+ (LOQ≤ + <5%)”, the “DP: anti-depressant” value is listed as “+ (LOQ≤ + <5%)”, the “MS: mood stabilizer” value was “+ (LOQ≤ + <5%)” and the “PS: anti-psychotic” value is listed as “+ (LOQ≤ + <5%)”. Moreover, the “SD: sedative hypnotic” value is listed as “+++ (25%≤ +++ <50%)” and the “UN: uncharacterized CNS activity” value is reported as “+ (LOQ≤ + <5%)”.

Take `CN(C)C[C@@H]1OCCc2cccc(F)c21` [Example 85, (R)-1-(8-fluoroisochroman-1-yl)-N,N-dimethylmethanamine]: the “AD: ADHD (SmartCube probability)” value is given as “+ (LOQ≤ + <5%)”, the “AG: analgesic (SmartCube probability)” value is listed as “+ (LOQ≤ + <5%)”, the “AX: anxiolytic (SmartCube probability)” value is “+++ (25%≤ +++ <50%)” and the “CE: cognitive enhancer” value is listed as “++ (5%≤ ++ <25%)”. The “DP: anti-depressant” value is “++ (5%≤ ++ <25%)”, the “MS: mood stabilizer” value is reported as “+ (LOQ≤ + <5%)”, the “PS: anti-psychotic” value is “++ (5%≤ ++ <25%)” and the “SD: sedative hypnotic” value was “++ (5%≤ ++ <25%)”. The “UN: uncharacterized CNS activity” value is “+++ (25%≤ +++ <50%)”. Further, the minimal effective dose under setting [1] is under 3 mg/kg.

Regarding `NC[C@@H]1OCCc2cc(F)ccc21` [Example 34, (R)-(6-fluoroisochroman-1-yl)methanamine], the “AD: ADHD (SmartCube probability)” value is “+ (LOQ≤ + <5%)”, the “AG: analgesic (SmartCube probability)” value is “++ (5%≤ ++ <25%)”, the “AX: anxiolytic (SmartCube probability)” value was “++ (5%≤ ++ <25%)” and the “CE: cognitive enhancer” value is “++ (5%≤ ++ <25%)”. The “DP: anti-depressant” value is listed as “++ (5%≤ ++ <25%)”, the “MS: mood stabilizer” value was “++ (5%≤ ++ <25%)”, the “PS: anti-psychotic” value is “+++ (25%≤ +++ <50%)” and the “SD: sedative hypnotic” value is on record as “+ (LOQ≤ + <5%)”. Further, the “UN: uncharacterized CNS activity” value was “+++ (25%≤ +++ <50%)”. Moreover, under setting [1], the minimal effective dose is under 3 mg/kg.
